The source of these data is ChEMBL document CHEMBL6109061, “Discovery of an Ultralong-acting Nondepolarizing Neuromuscular Blocker That Displays Short Onset Time and On-Demand Rapid Reversal by a Biocompatible Antagonist” (J Med Chem, 2025).

Data set [1] concerns Rattus norvegicus. The data set can be described thus: Reversal of IMC-14-induced neuromuscular block in Sprague-Dawley rat model assessed as recovery time at 10 mg/kg, iv measured at 5 hrs. Type of data set: functional.
In data set [2] the test system is Rattus norvegicus. The data set can be described thus: Reversal of IMC-14-induced neuromuscular block in Sprague-Dawley rat model assessed as recovery time at 10 mg/kg, iv measured at 30 mins. Type of data set: functional. To be noted: 0.5 h.
Data set [3] has as its system Rattus norvegicus. The data set can be described thus: Reversal of IMC-14-induced neuromuscular block in Sprague-Dawley rat model assessed as recovery time at 10 mg/kg, iv measured at 30 sec. It counts as functional. The settings on record: 0.5 min.
The subject of data set [4] is Rattus norvegicus. The data set can be described thus: Reversal of IMC-14-induced neuromuscular block in Sprague-Dawley rat model assessed as recovery time at 20 mg/kg, iv measured at 19 sec. It counts as functional. To be noted: 19 s.
Data set [5] is described as follows: Toxicity in Sprague-Dawley rat at 0.2 mg/kg, iv measured for 5 hrs. It counts as organism-based. The settings on record: in vivo.
The nature of data set [6]: Solubility of compound in water. Type of data set: physicochemical.
For data set [7], the system named is Rattus norvegicus. As to the kind of experiment: Neuromuscular block activity in propofol-induced anesthetized Sprague-Dawley rat model assessed as inhibition of twitch by measuring twitch intensity of quadriceps muscle at 0.04 mg/kg, iv administered as bolus dose by TOF watch monitor analysis relative to control. Type of data set: functional.
Data set [8] concerns Rattus norvegicus. As to the kind of experiment: Neuromuscular block activity in propofol-induced anesthetized Sprague-Dawley rat model assessed as inhibition of twitch by measuring twitch intensity of quadriceps muscle at 0.032 mg/kg, iv administered as bolus dose by TOF watch monitor analysis relative to control. Type of data set: functional.
For data set [9], the system named is Rattus norvegicus. As to the kind of experiment: Neuromuscular block activity in propofol-induced anesthetized Sprague-Dawley rat model assessed as inhibition of twitch by measuring twitch intensity of quadriceps muscle at 0.2 mg/kg, iv administered as bolus dose by TOF watch monitor analysis relative to control. Type of data set: functional.
For data set [10], the system named is Rattus norvegicus. The data set can be described thus: Neuromuscular block activity in propofol-induced anesthetized Sprague-Dawley rat model assessed as inhibition of twitch by measuring twitch intensity of quadriceps muscle at 1.5 mg/kg, iv administered as bolus dose by TOF watch monitor analysis relative to control. It counts as functional.
Data set [11] relates to Rattus norvegicus. The data set can be described thus: Neuromuscular block activity in propofol-induced anesthetized Sprague-Dawley rat model assessed as inhibition of twitch by measuring twitch intensity of quadriceps muscle at 3 mg/kg, iv administered as bolus dose by TOF watch monitor analysis relative to control. Type of data set: functional.
Data set [12] concerns Rattus norvegicus. As to the kind of experiment: Neuromuscular block activity in propofol-induced anesthetized Sprague-Dawley rat model assessed as inhibition of twitch by measuring twitch intensity of quadriceps muscle at 10 mg/kg, iv administered as bolus dose by TOF watch monitor analysis relative to control. It counts as functional.
Data set [13] relates to Rattus norvegicus. As to the kind of experiment: Neuromuscular block activity in propofol-induced anesthetized Sprague-Dawley rat model assessed as onset time required for twitch reduction at 0.032 mg/kg, iv. It counts as functional.
The subject of data set [14] is Rattus norvegicus. As to the kind of experiment: Neuromuscular block activity in propofol-induced anesthetized Sprague-Dawley rat model assessed as onset time required for twitch reduction at 0.04 mg/kg, iv. Type of data set: functional.
The subject of data set [15] is Rattus norvegicus. As to the kind of experiment: Neuromuscular block activity in propofol-induced anesthetized Sprague-Dawley rat model assessed as onset time required for twitch reduction at 0.2 mg/kg, iv. Type of data set: functional.
Data set [16] has as its system Rattus norvegicus. The data set can be described thus: Neuromuscular block activity in propofol-induced anesthetized Sprague-Dawley rat model assessed as onset time required for twitch reduction at 1.5 mg/kg, iv. Type of data set: functional.
Data set [17] relates to Rattus norvegicus. The data set can be described thus: Neuromuscular block activity in propofol-induced anesthetized Sprague-Dawley rat model assessed as onset time required for twitch reduction at 3 mg/kg, iv. Type of data set: functional.
Data set [18] has as its system Rattus norvegicus. As to the kind of experiment: Neuromuscular block activity in propofol-induced anesthetized Sprague-Dawley rat model assessed as onset time required for twitch reduction at 10 mg/kg, iv. It counts as functional.
Data set [19] has as its system Rattus norvegicus. The data set can be described thus: Neuromuscular block activity in propofol-induced anesthetized Sprague-Dawley rat model assessed as time duration of 0 to 25 percent recovery indices at 0.032 mg/kg, iv. It counts as functional.
Data set [20] has as its system Rattus norvegicus. As to the kind of experiment: Neuromuscular block activity in propofol-induced anesthetized Sprague-Dawley rat model assessed as time duration of 0 to 25 percent recovery indices at 0.04 mg/kg, iv. Type of data set: functional.
Data set [21] has as its system Rattus norvegicus. The data set can be described thus: Neuromuscular block activity in propofol-induced anesthetized Sprague-Dawley rat model assessed as time duration of 0 to 25 percent recovery indices at 0.2 mg/kg, iv. Type of data set: functional.
Data set [22] deals with Rattus norvegicus. As to the kind of experiment: Neuromuscular block activity in propofol-induced anesthetized Sprague-Dawley rat model assessed as time duration of 0 to 25 percent recovery indices at 1.5 mg/kg, iv. It counts as functional.
The test system of data set [23] is Rattus norvegicus. As to the kind of experiment: Neuromuscular block activity in propofol-induced anesthetized Sprague-Dawley rat model assessed as time duration of 0 to 25 percent recovery indices at 3 mg/kg, iv. Type of data set: functional.
The test system of data set [24] is Rattus norvegicus. As to the kind of experiment: Neuromuscular block activity in propofol-induced anesthetized Sprague-Dawley rat model assessed as time duration of 0 to 25 percent recovery indices at 10 mg/kg, iv. It counts as functional.
The test system of data set [25] is Rattus norvegicus. As to the kind of experiment: Neuromuscular block activity in propofol-induced anesthetized Sprague-Dawley rat model assessed as recovery time at 0.032 mg/kg, iv. It counts as functional.
For data set [26], the system named is Rattus norvegicus. The data set can be described thus: Neuromuscular block activity in propofol-induced anesthetized iv dosed Sprague-Dawley rat model assessed as effective dose. Type of data set: functional.
Data set [27] in a line: Toxicity in iv dosed ICR mouse assessed as maximum tolerated dose. It counts as organism-based. The settings on record: in vivo.
The subject of the next data set is H9c2. The data set can be described thus: Cytotoxicity against rat H9c2 cells assessed as cell viability at 150 microg/ml measured for 24 hrs by SRB assay. Type of data set: toxicity, cell-based. To be noted: h9c2, 24 h, dose 150 µg/ml. A general note: Sulforhodamine B stains cellular protein and so reports cell mass.
Data set [28] can be described thus: Hemolytic activity in human RBC assessed as hemolysis rate at 2048 microg/ml relative to control. The settings on record: red blood cells, at 2048 µg/mL, read-out: Activity. It counts as toxicity, cell-based, Erythrocyte.
The nature of data set [29]: Hemolytic activity in rat RBC assessed as hemolysis rate at 2048 microg/ml relative to control. Type of data set: toxicity, cell-based, Erythrocyte. The settings on record: red blood cells, at 2048 µg/mL, read-out: Activity.
Data set [30] concerns the target Voltage-gated inwardly rectifying potassium channel KCNH2 (Homo sapiens, UniProt Q12809). As to the kind of experiment: Inhibition of hERG by Qpatch assay. It counts as toxicity. In general terms: Block of hERG is tested as a sign of cardiac risk.
Data set [31] is described as follows: Mutagenicity in Salmonella typhimurium TA97a by AMES test. Type of data set: toxicity. The settings on record: salmonella enterica subsp. enterica serovar typhimurium.
Data set [32] can be described thus: Mutagenicity in Salmonella typhimurium TA98 by AMES test. To be noted: salmonella enterica subsp. enterica serovar typhimurium. It counts as toxicity.
Data set [33] can be described thus: Mutagenicity in Salmonella typhimurium TA100 by AMES test. Type of data set: toxicity. The settings on record: salmonella enterica subsp. enterica serovar typhimurium.
A short description of data set [34]: Toxicity in Sprague-Dawley rat assessed as heart damage at 3 mg/kg, iv measured after 5 hrs by H and E staining based analysis. The settings on record: in vivo. Type of data set: organism-based.
Data set [35] in a line: Toxicity in Sprague-Dawley rat assessed as liver damage at 3 mg/kg, iv measured after 5 hrs by H and E staining based analysis. Type of data set: organism-based. The settings on record: in vivo.
Data set [36] in a line: Toxicity in Sprague-Dawley rat assessed as spleen damage at 3 mg/kg, iv measured after 5 hrs by H and E staining based analysis. Type of data set: organism-based. To be noted: in vivo.
Data set [37] can be described thus: Toxicity in Sprague-Dawley rat assessed as lung damage at 3 mg/kg, iv measured after 5 hrs by H and E staining based analysis. It counts as organism-based. To be noted: in vivo.
The nature of data set [38]: Toxicity in Sprague-Dawley rat assessed as kidney damage at 3 mg/kg, iv measured after 5 hrs by H and E staining based analysis. It counts as organism-based. To be noted: in vivo.

A word on the solubility: it is how much of the substance goes into solution per volume. Higher therefore signals a readily soluble substance. What is called inhibition in vivo is the change of the read-out against control, counted positive when it falls. Usually ED50 stands for the dose that gives a 50% effect, or the effect in half of the subjects. A word on the MTD: it is the largest dose that counted as tolerated. One may read the IC50 as the concentration that inhibits the measured activity by half. High values mean a need for much substance, low ones inhibition by little substance.

Sequence of Voltage-gated inwardly rectifying potassium channel KCNH2 (Q12809 whole entry): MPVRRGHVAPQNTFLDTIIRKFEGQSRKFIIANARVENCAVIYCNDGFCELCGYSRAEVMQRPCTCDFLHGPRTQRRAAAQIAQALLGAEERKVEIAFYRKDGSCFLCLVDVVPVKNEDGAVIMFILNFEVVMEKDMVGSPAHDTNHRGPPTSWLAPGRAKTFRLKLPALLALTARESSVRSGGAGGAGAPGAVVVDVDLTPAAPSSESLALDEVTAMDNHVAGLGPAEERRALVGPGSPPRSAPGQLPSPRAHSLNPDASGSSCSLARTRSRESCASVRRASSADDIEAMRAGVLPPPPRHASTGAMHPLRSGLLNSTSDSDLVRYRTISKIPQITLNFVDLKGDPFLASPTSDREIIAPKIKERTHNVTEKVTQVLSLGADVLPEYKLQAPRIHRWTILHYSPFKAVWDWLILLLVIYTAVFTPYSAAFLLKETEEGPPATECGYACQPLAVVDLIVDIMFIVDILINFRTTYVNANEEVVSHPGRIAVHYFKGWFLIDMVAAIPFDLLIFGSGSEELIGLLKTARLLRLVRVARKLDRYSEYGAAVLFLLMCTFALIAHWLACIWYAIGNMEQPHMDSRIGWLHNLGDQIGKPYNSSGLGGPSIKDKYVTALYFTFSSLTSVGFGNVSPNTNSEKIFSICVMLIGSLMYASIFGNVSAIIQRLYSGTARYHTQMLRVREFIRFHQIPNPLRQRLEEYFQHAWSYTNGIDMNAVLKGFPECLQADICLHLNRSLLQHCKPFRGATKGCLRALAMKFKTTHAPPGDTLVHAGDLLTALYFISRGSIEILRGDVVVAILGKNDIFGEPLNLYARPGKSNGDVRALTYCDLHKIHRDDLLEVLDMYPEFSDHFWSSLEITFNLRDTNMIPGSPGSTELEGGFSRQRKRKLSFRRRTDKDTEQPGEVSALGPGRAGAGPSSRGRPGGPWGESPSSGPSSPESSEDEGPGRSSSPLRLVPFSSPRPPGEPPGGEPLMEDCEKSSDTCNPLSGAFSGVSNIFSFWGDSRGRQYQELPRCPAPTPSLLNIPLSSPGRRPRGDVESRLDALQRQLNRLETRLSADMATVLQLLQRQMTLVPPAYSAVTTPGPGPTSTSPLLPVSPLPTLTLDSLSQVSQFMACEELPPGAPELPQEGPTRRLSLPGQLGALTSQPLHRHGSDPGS

In the case of `C[C@]12N3Cc4c(c(OCCCC(=O)[O-])c5ccccc5c4OCCCC(=O)[O-])CN1C(=O)N1CN4C(=O)N5CN6C(=O)N7CN8C(=O)N9Cc%10c(c(OCCCC(=O)[O-])c%11ccccc%11c%10OCCCC(=O)[O-])CN%10C(=O)N(CN%11C(=O)N(CN%12C(=O)N(CN(C3=O)[C@]12C)[C@@H]4[C@H]%125)[C@@H]6[C@H]%117)[C@]8(C)[C@@]9%10C.[Na+].[Na+].[Na+].[Na+]`, the Time turned out to be 12 s in the data set on Rattus norvegicus [1], 19 s in the data set on Rattus norvegicus [2], 54 s in the data set with Rattus norvegicus [3] and 30 s in the data set on Rattus norvegicus [4]. Further, the Activity entry in [5] is “Non-toxic”.

Turning to `Cc1n2cc[n+]1Cc1ccc(cc1)Oc1ccc(cc1)C[n+]1ccn(c1C)CCCn1cc[n+](c1C)Cc1ccc(cc1)Oc1ccc(cc1)C[n+]1ccn(c1C)CCC2.[Cl-].[Cl-].[Cl-].[Cl-]`, in [6], the solubility was no less than 50 mM. For the same compound, the inhibition in vivo at 0.04 mg/kg in the data set on Rattus norvegicus [7] turned out to be 90%. In addition, the inhibition in vivo at 0.032 mg/kg with Rattus norvegicus [8] stood at 90%. Further, in the data set with Rattus norvegicus [9], the inhibition in vivo at 0.2 mg/kg came to 100%. Moreover, the inhibition in vivo at 1.5 mg/kg in the data set on Rattus norvegicus [10] was determined as 100%. Also, the inhibition in vivo at 3 mg/kg in the data set on Rattus norvegicus [11] is 100%. For the same compound, the inhibition in vivo at 10 mg/kg in the data set with Rattus norvegicus [12] came out at 100%. The Time is 293 s with Rattus norvegicus [13]; 90 s with Rattus norvegicus [14]; 20.5 s with Rattus norvegicus [15]; 13 s in the data set on Rattus norvegicus [16]; 9 s in the data set on Rattus norvegicus [17]; 9 s in the data set on Rattus norvegicus [18]. The Time is given as 35 min in the data set with Rattus norvegicus [19]; 102 min in the data set on Rattus norvegicus [20]; 217 min in the data set on Rattus norvegicus [21]; greater than 300 min in the data set with Rattus norvegicus [22]; greater than 300 min with Rattus norvegicus [23]; greater than 300 min with Rattus norvegicus [24]. Further, the Time with Rattus norvegicus [25] is reported as 7.6 min. For the same compound, the median effective dose (ED50) in the data set on Rattus norvegicus [26] was 0.016 mg/kg. Besides, in data set [27], the MTD stood at 550 mg/kg. Also, the Activity entry (in the data set on H9c2; in [31]; in data set [32]; in [33]; in [34]; in data set [35]) was “Non-toxic” each time. For the same compound, the Activity result in data set [36], in data set [37] and in data set [38] was “Non-toxic” each time. In addition, the hemolysis at 2048 microg/ml in data set [28] and in [29] was less than 5% each time. The compound further returned an IC50 in [30] greater than 40 µM.
